Data taken from ChEMBL document CHEMBL3045350, “Inheritance of resistance to a new non-steroidal ecdysone agonist, fufenozide, in the diamondback moth, Plutella xylostella (Lepidoptera: Plutellidae)” (2010).
Converted amounts (≈) assume the structure as drawn.

Legend:
Assay type in all cases: functional
Plutella xylostella [1] = assay: Resistant ratio, ratio of LC50 for F1 generation of third-instar larvae of Plutella xylostella (diamondback moth) to LC50 for fufenozide-susceptible third-instar larvae of Plutella xylostella
Plutella xylostella [2] = assay: Insecticidal activity against backcrossed third-instar larvae of Plutella xylostella (diamondback moth) in cabbage leaf assessed as mortality after 96 hr by leaf dip method; settings: foliar
Plutella xylostella [3] = assay: Insecticidal activity against F2 generation of third-instar larvae of Plutella xylostella (diamondback moth) in cabbage leaf assessed as mortality after 96 hr by leaf dip method; settings: foliar
Plutella xylostella [4] = assay: Insecticidal activity against F1 pooled generation of third-instar larvae of Plutella xylostella (diamondback moth) in cabbage leaf assessed as mortality after 96 hr by leaf dip method; settings: foliar
Plutella xylostella [5] = assay: Insecticidal activity against F'1 generation of third-instar larvae of Plutella xylostella (diamondback moth) in cabbage leaf assessed as mortality after 96 hr by leaf dip method; settings: foliar
Plutella xylostella [6] = assay: Insecticidal activity against F1 generation of third-instar larvae of Plutella xylostella (diamondback moth) in cabbage leaf assessed as mortality after 96 hr by leaf dip method; settings: foliar
Plutella xylostella [7] = assay: Insecticidal activity against fufenozide-susceptible third-instar larvae of Plutella xylostella (diamondback moth) in cabbage leaf assessed as mortality after 96 hr by leaf dip method; settings: foliar
Plutella xylostella [8] = assay: Insecticidal activity against fufenozide-resistant 39th generation of third-instar larvae of Plutella xylostella (diamondback moth) in cabbage leaf assessed as mortality after 96 hr by leaf dip method; settings: foliar
Plutella xylostella [9] = assay: Resistant ratio, ratio of LC50 for backcrossed third-instar larvae of Plutella xylostella (diamondback moth) to LC50 for fufenozide-susceptible third-instar larvae of Plutella xylostella
Plutella xylostella [10] = assay: Resistant ratio, ratio of LC50 for F2 generation of third-instar larvae of Plutella xylostella (diamondback moth) to LC50 for fufenozide-susceptible third-instar larvae of Plutella xylostella
Plutella xylostella [11] = assay: Resistant ratio, ratio of LC50 for F1 pooled generation of third-instar larvae of Plutella xylostella (diamondback moth) to LC50 for fufenozide-susceptible third-instar larvae of Plutella xylostella
Plutella xylostella [12] = assay: Resistant ratio, ratio of LC50 for F'1 generation of third-instar larvae of Plutella xylostella (diamondback moth) to LC50 for fufenozide-susceptible third-instar larvae of Plutella xylostella

Cc1cc(C)cc(C(=O)N(NC(=O)c2ccc3c(c2C)OC(C)C3)C(C)(C)C)c1 (configuration not stated) [FUXIAN]
RatioLC50 (Plutella xylostella [1]): 1.76
LC50 (Plutella xylostella [2]): 6.93 µg/mL (≈ 17.6 µM)
LC50 (Plutella xylostella [3]): 5 µg/mL (≈ 12.7 µM)
LC50 (Plutella xylostella [4]): 5.82 µg/mL (≈ 14.8 µM)
LC50 (Plutella xylostella [5]): 6.22 µg/mL (≈ 15.8 µM)
LC50 (Plutella xylostella [6]): 5.22 µg/mL (≈ 13.2 µM)
LC50 (Plutella xylostella [7]): 2.23 µg/mL (≈ 5.66 µM)
LC50 (Plutella xylostella [8]): 1480 µM
RatioLC50 (Plutella xylostella [9]): 2.33
RatioLC50 (Plutella xylostella [10]): 2.24
RatioLC50 (Plutella xylostella [11]): 2.61
RatioLC50 (Plutella xylostella [12]): 2.09
